Laboratory results from ChEMBL document CHEMBL1667805, “Synthesis of new C5-(1-substituted-1,2,3-triazol-4 or 5-yl)-2'-deoxyuridines and their antiviral evaluation” (Eur J Med Chem, 2011).
Calls of active or inactive are those of the source. The rule behind the calls is not given here.

Assays:
[1] = system: Mammalian orthoreovirus 1; type: functional, organism-based; settings: Vero
[2] = system: Sindbis virus; type: functional, organism-based; settings: Vero
[3] = system: Punta Toro virus; type: functional, organism-based; settings: Vero
[4] = system: Coxsackievirus B4; type: functional, organism-based; settings: HeLa
[5] = system: Vesicular stomatitis virus; type: functional, organism-based; settings: HeLa
[6] = system: Human immunodeficiency virus 1; test: Antiviral activity against HIV1 3B infected in human […] cells assessed as virus-induced CEM giant cell formation after 4 days; type: functional, organism-based
[7] = system: Human immunodeficiency virus 2; test: Antiviral activity against HIV2 ROD infected in human […] cells assessed as virus-induced CEM giant cell formation after 4 days; type: functional, organism-based; settings: ISOLATE ROD
[8] = system: Vesicular stomatitis virus; type: functional, organism-based; settings: MDCK
[9] = system: Influenza A virus; type: functional, organism-based; settings: H1N1, MDCK
[10] = system: Influenza A virus; type: functional, organism-based; settings: H3N2, MDCK
[11] = system: Influenza B virus; type: functional, organism-based; settings: MDCK
[12] = system: Human respirovirus 3; type: functional, organism-based; settings: Vero
[13] = system: L1210; test: cells; settings: Mus musculus, L1210, 48 h
[14] = system: CCRF-CEM; test: cells; settings: Homo sapiens, 72 h
[15] = system: HeLa; test: cells; settings: Homo sapiens, 96 h
[16] = in vitro; settings: human, HEL cells
[17] = system: Human alphaherpesvirus 1; test: microbe, parasite or virus in culture; settings: Human alphaherpesvirus 1, KOS, HEL
[18] = system: Human alphaherpesvirus 1; test: microbe, parasite or virus in culture; settings: Human alphaherpesvirus 1, KOS, HEL; remark: listed apart in the source
[19] = system: Human alphaherpesvirus 2; test: microbe, parasite or virus in culture; settings: Human alphaherpesvirus 2, strain G, HEL
[20] = system: Human alphaherpesvirus 3; test: microbe, parasite or virus in culture; settings: Human alphaherpesvirus 3, strain Oka vaccine, HEL
[21] = system: Human alphaherpesvirus 3; test: microbe, parasite or virus in culture; settings: Human alphaherpesvirus 3, 07-1, HEL
[22] = system: Human betaherpesvirus 5; test: microbe, parasite or virus in culture; settings: Human betaherpesvirus 5, AD169, HEL
[23] = system: Human betaherpesvirus 5; test: microbe, parasite or virus in culture; settings: Human betaherpesvirus 5, Davis, HEL
[24] = system: Vaccinia virus; test: microbe, parasite or virus in culture; settings: Orthopoxvirus vaccinia, HEL

Compound | inhibition [1] | inhibition [2] | inhibition [3] | inhibition [4] | inhibition [5] | inhibition [6] | inhibition [7] | inhibition [8] | inhibition [9] | inhibition [10] | inhibition [11] | inhibition [12] | IC50 [13] | IC50 [14] | IC50 [15] | CC50 at 72 h [16] | MCC at 72 h [16] | EC50 [17] | EC50 [18] | EC50 [19] | other results
CCCCc1ccc(-n2cc(-c3cn([C@H]4C[C@H](O)[C@@H](CO)O4)c(=O)[nH]c3=O)nn2)cc1 | inactive | inactive | inactive | inactive | inactive | inactive | inactive | inactive | inactive | inactive | inactive | inactive | 15 µM | 60 µM | 23 µM | 147 µM | 230 µM | > 50 µM | > 50 µM | > 50 µM | EC50 [20]: > 50 µM; EC50 [21]: > 50 µM; EC50 [22]: > 50 µM; EC50 [23]: > 50 µM; EC50 [24]: > 50 µM
CSc1ccc(-n2cc(-c3cn([C@H]4C[C@H](O)[C@@H](CO)O4)c(=O)[nH]c3=O)nn2)cc1 | inactive | inactive | inactive | inactive | inactive | inactive | inactive | inactive | inactive | inactive | inactive | inactive | 62 µM | 50 µM | 23 µM | 27 µM | > 230 µM | > 50 µM | > 50 µM | > 50 µM | EC50 [20]: 27 µM; EC50 [21]: > 50 µM; EC50 [22]: > 50 µM; EC50 [23]: > 50 µM; EC50 [24]: > 50 µM
O=c1[nH]c(=O)n([C@H]2C[C@H](O)[C@@H](CO)O2)cc1-c1cn(-c2ccc(Br)cc2)nn1 | inactive | inactive | inactive | inactive | inactive | inactive | inactive | inactive | inactive | inactive | inactive | inactive | 4.6 µM | 1.8 µM | 1.37 µM | 1 µM | ≥ 44 µM | 132 µM | 132 µM | ≥ 100 µM | EC50 [20]: 2.6 µM; EC50 [21]: 14 µM; EC50 [22]: 45 µM; EC50 [23]: 25 µM; EC50 [24]: 31 µM
CC(C)c1ccc(-n2cc(-c3cn([C@H]4C[C@H](O)[C@@H](CO)O4)c(=O)[nH]c3=O)nn2)cc1 | inactive | inactive | inactive | inactive | inactive | inactive | inactive | inactive | inactive | inactive | inactive | inactive | 29 µM | 22 µM | 6.2 µM | 7.4 µM | > 240 µM | > 10 µM | > 10 µM | > 10 µM | EC50 [20]: 20 µM; EC50 [21]: 97 µM; EC50 [22]: 240 µM; EC50 [23]: 185 µM; EC50 [24]: > 10 µM
